Test results: patent publication US7258999B2, “PTH responsive gene” (Wyeth, priority 2002, dated 2007)

System: PAIGB expression in U2OS cells
Experiment: RT-PCR and real time PCR of PAIGB expression in U2OS cells
Type: cell-based, human
Details: 1 or 10 nM
Method: RNA samples were subject to RT-PCR and Taq-man analysis using probe and primers to PAIGB polynucleotide sequences and GAPDH as well as 18S ribosomal RNA. RT-PCR was done using TaKaRa kit (Panvera, Shiga, Japan) according to manufacturer recommendation. RT reaction was done under following conditions: 30° C. for 10 min, 42° C. for 50 min, 99° C. for 5 min and 4° C. for 5 min. PCR conditions were: 94° C. for 5 min, 35 cycles of 94° C. for 2 min, 62° C. for 30″, 72° C. for 1 min and 30 sec, and 72° C. for 10 min. The PCR products were separated on 1% agarose gel.
Applicants performed multiplex real time PCR (TaqMan) analysis on previously DNAsed samples using gene specific probe and primers and 18S ribosomal RNA probe and primer sets purchased from Applied Biosystem. (Foster City, Calif.) The samples were DNAsed according to the protocol provided by Ambion (DNA-free kit). TaqMan probe and primers for PAIGB was identify using Primer Express computer program. The sequence for rat PAIGB TaqMan probe was 6FAM-5′[…] (SEQ ID NO: 16) forward and reverse primers were 5′[…] 3′ (SEQ ID NO:17) and 5′ […] 3′ (SEQ ID NO:18) respectively. The final concentrations for probes were 500 nM and 40 nM for PAIGB and 18S ribosomal RNA or GAPDH respectively. […]

human PTH (1-34)
PAIGB expression in human U2OS osteoblastic cells: induction
